Laboratory results: patent US5356921A, “Imidazolylphenol compounds, pharmaceutical compositions containing them, and processes for preparing such compounds and compositions” (Gruenenthal GmbH, priority 1992, dated 1994)

Assays:
5-lipoxygenase [1] = target: T1, 5-lipoxygenase (Rattus norvegicus, UniProt P12527); test: Inhibition of cell-free 5-lipoxygenase from RBL-1-cells; type: biochemical; details: 10,000×g supernatant of RBL cells; polarographic; arachidonic acid 75 μM
T1 construct: endogenous in cells; host or cells: RBL-1 cells (rat basophilic leukemia), intact
T1 sequence (P12527 1-673): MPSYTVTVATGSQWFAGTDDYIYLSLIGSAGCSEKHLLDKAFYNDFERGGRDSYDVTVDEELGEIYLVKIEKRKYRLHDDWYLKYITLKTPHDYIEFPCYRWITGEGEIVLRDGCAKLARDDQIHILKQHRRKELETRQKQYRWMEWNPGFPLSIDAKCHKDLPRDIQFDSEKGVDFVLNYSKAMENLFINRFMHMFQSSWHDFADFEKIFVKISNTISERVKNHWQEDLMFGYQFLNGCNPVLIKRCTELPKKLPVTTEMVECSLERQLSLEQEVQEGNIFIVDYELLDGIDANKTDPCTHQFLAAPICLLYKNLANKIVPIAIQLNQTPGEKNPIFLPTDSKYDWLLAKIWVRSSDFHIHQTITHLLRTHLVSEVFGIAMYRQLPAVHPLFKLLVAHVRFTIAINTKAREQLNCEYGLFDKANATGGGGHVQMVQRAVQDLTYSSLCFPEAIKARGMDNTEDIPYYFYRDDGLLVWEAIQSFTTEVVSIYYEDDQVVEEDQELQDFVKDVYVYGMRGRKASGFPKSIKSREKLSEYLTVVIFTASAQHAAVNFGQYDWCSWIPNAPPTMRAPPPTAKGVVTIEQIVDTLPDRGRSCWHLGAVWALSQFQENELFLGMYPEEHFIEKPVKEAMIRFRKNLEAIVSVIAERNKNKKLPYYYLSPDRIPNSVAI
Protocol: Cell-free 5-lipoxygenase was polarographically measured from 10,000×gsupernatant of homogenized rat basophilic leucemia cells [M. Haurand and L. Flohe in Biol. Chem. Hoppe-Seyler 369, 133-142 (1988)]. After preincubation of the 10,000×g supernatant with arachidonic acid (75 μM), ATP (adenosine triphosphate; 4 μM), reduced glutathione (4 mM), and either a compound according to the invention (0.1 to 100 μM) or a solvent (ethanol and/or dimethyl sulfoxide) at 35° C. for 5 minutes, the lipoxygenase reaction was initiated by addition of calcium chloride (3 mM) and recorded simultaneously.
The activity of 5-lipoxygenase was determined from the difference of the pO2 -decrease before and after addition of calcium chloride. The evaluation included the initial rate of the reaction after the lag-phase as well as the duration of the lag-phase. In a concentration range of from 5 to 10 μM the test substances induced lag-phases of 15 seconds.

5-lipoxygenase [2] = target: T1, 5-lipoxygenase; test: Inhibition of 5-lipoxygenase in RBL-1-cells; type: cell-based; details: 20 μM [14C]-arachidonic acid, 20 μM A 23 187
Protocol: To determine the inhibition of 5-lipoxygenase rat basophilic leukemia cells (RBL-1-cells) were cultured in vitro, harvested by centrifugation, washed with 50 mM potassium phosphate buffer of pH 7.4, and then suspended in this buffer at 1×10^7 cells/mi. To 1 ml each of this suspension there was added indomethacin (10 μM) and calcium chloride (2 mM), and then the mixture was incubated in the absence or presence of a compound according to the invention in a concentration range of from 0.1 μM to 100 μM for 3 minutes and thereafter with 20 μM of [^14 C]-arachidonic acid and 20 μM of the calcium ionophore A 23 187 for 10 minutes. The reaction was stopped by adding 20 μl of glacial acetic acid, and then the mixture was extracted with ethyl acetate to isolate the metabolites of arachidonic acid formed by the enzymatic action of 5-lipoxygenase. These were separated by thin layer chromatography using a solvent mixture known to be suitable for lipoxygenase products [c.f. Jakschik et al., Biochem. Biophys. Res. Commun. 102, 624 (1981)].
The distribution of the radioactivity among the various metabolites of arachidonic acid was measured using a TLC Linear Analyzer. By correlating the percentages of the amount of the products formed under the action of 5lipoxygenase (5-HETE, isomers of LTB4) in the absence as well as in the presence of different concentrations of compounds according to the invention, the IC50 -values, i.e. the concentrations which cause 50% inhibition of 5-lipoxygenase were determined graphically from semilogarithmic diagrams.

guinea pigs = test: Allergen-induced bronchoconstriction in guinea pigs (Konzett-Roessler); type: in vivo, guinea pig; details: Cavia porcellus, po, 1 h, 60 minutes before ovalbumin, read-out: ED40-Value, inhibition of the bronchoconstriction elicited by ovalbumin
Protocol: The antiasthmatic effect of compounds according to the invention was tested in anesthetized and ventilated guinea pigs. To induce an asthmatic reaction, the animals were passively sensitized by a single intraperitoneal injection of anti-ovalbumin serum. After 48 hours an asthmatic reaction was elicited by intravenous challenge with 0.2 mg/kg of ovalbumin. The immediately resulting bronchoconstriction was measured as an increase in intratracheal pressure. Effects caused by histamine, serotonin and sympathic counterreaction were eliminated by intravenous pretreatment with 2.15 mg/kg of mepyramine, 46.4 μg/kg of propranolol, 4.64 mg/kg of atropine, and 1 mg/kg of methysergide, all administered 5 minutes before challenge. Compounds according to the invention were orally administered 60 minutes before the administration of ovalbumin. The following ED40-values for the inhibition of the bronchoconstriction elicited by ovalbumin, i.e. the effective doses causing a 40% average inhibition of the bronchoconstriction, were determined: […]

5-lipoxygenase [3] = test: 5-lipoxygenase inhibition in rat blood after oral administration (ex vivo iLTB4-formation); details: male Wistar rats, 21.5 mg/kg oral, one hour after administration, A 23 187 15 μg/ml
Protocol: The bioavailability of the compounds of formula I as 5-lipoxygenase inhibitors was characterized by means of an ex vivo biochemical assessment method described by Tateson et al. in Brit. J. Pharmacol. 94, 528 (1988). A compound of formula I was orally administered to male rats (Wistar strain) in a dose of 21.5 mg/kg. One hour after administration the rats after lethal CO2 -narcosis were bled by heart puncture with added heparin as an anticoagulant. Aliquots of the whole blood were incubated at 37° C. for 30 minutes in a water bath with calcium ionophore A 23 187 at an end concentration of 15 μg/ml. At the end of the incubation the samples were centrifuged, and the concentration of immunoreactive LTB4 (iLTB4) in aliquots of […] percent inhibition of ex vivo iLTB4 -formation in whole blood of rats treated with a compound according to the invention, rats orally treated with an appropriate vehicle solution were included in all experiments, and aliquots of their blood were run in parallel and were processed in the same way as described. The average iLTB4 -content of the plasma of the vehicle treated rats served as the 100% value. The activity in percent of the ex vivo iLTB4 -formation after oral administration of a compound according to the invention was calculated by dividing the average value of the iLTB4 -content in ng iLTB4 /ml of the group treated with a compound according to the invention by the average value of the iLTB4 -contents in ng iLTB4 /ml of the vehicle treated group and subsequent multiplication by the factor 100. The respective inhibition in percent was calculated by subtracting the activity in percent from 100.

| Structure (SMILES) | IC50 (5-lipoxygenase [1]) [µM] | IC50 (5-lipoxygenase [2]) [µM] | ED40 (guinea pigs) [mg/kg] | Inhibition of ex vivo iLTB4-formation in whole blood (5-lipoxygenase [3]; 21.5 mg/kg) [%] | Inhibition of ex vivo iLTB4-formation in whole blood (5-lipoxygenase [3]) [%] |
| --- | --- | --- | --- | --- | --- |
| NC(=O)N(O)Cc1ccc(Oc2ccc(-n3ccnc3)cc2)cc1 [Example 1, N-hydroxy-N-[4-[4-(1H-imidazol-1-yl)phenoxy]phenylmethyl]urea] | 7 | 2 | 9.3 | 89 | – |
| CC(=O)N(O)Cc1ccc(Oc2ccc(-n3ccnc3)cc2)cc1 [Example 3, N-hydroxy-N-[4-[4-(1H-imidazol-1-yl)phenoxy]phenylmethyl]acetamide] | 3 | 5 | 15.5 | – | 91 |
